Data set [1] concerns MDA-MB-231. The experiment in a line: Cytostatic activity against human MDA-MB-231 cells preincubated for 3 hrs followed by serum treatment for 72 hrs measured on day 4 by MTT assay. The format is functional, cell-based.
Data set [2] relates to MCF7. The experiment in a line: Cytostatic activity against human MCF7 cells preincubated for 3 hrs followed by serum treatment for 72 hrs measured on day 4 by MTT assay. The format is functional, cell-based. On the technique in general: Formazan colour is commonly taken as a measure of viable cells.
For data set [3], the system named is MDA-MB-231. The experiment in a line: Drug uptake in human MDA-MB-231 cells at 1 to 10 uM preincubated for 90 mins followed by compound wash out and subsequent trypsin addition for 10 mins by 5 (6)-carboxy-fluorescein based flow cytometric analysis. The format is ADME, cell-based. To be noted: mda-mb-231, 10 min. Background: Flow cytometry measures light scatter and fluorescence of single cells or particles in a stream.

In data set [4] the test system is MCF7. As to the kind of experiment: Drug uptake in human MCF7 cells at 1 to 10 uM preincubated for 90 mins followed by compound wash out and subsequent trypsin addition for 10 mins by 5 (6)-carboxy-fluorescein based flow cytometric analysis. The format is ADME, cell-based. Particulars: mcf7, 10 min; call rule not given here.
Data set [5] relates to MCF7. As to the kind of experiment: Drug uptake in human MCF7 cells at 1 uM preincubated for 90 mins followed by compound wash out and subsequent trypsin addition for 10 mins by 5 (6)-carboxy-fluorescein based flow cytometric analysis. The format is ADME, cell-based. To be noted: mcf7, 10 min.
Data set [6] concerns MCF7. The experiment in a line: Drug uptake in human MCF7 cells at 10 uM preincubated for 90 mins followed by compound wash out and subsequent trypsin addition for 10 mins by 5 (6)-carboxy-fluorescein based flow cytometric analysis. The format is ADME, cell-based. To be noted: mcf7, 10 min.
Data set [7] has as its system MCF7. As to the kind of experiment: Drug uptake in human MCF7 cells at 5 uM preincubated for 90 mins followed by compound wash out and subsequent trypsin addition for 10 mins by 5 (6)-carboxy-fluorescein based flow cytometric analysis. The format is ADME, cell-based. Particulars: mcf7, 10 min.

Residues, ends and D or L forms follow the SMILES beside them. *: point of attachment. DAMPA = CN(Cc1cnc2nc(N)nc(N)c2n1)c1ccc(C(=O)*)cc1

For the compound `CC(C)C[C@H](NC(=O)[C@H](Cc1ccccc1)NC(=O)CNC(=O)[C@H](CCC(=O)O)NC(=O)[C@H](CCC(=O)O)NC(=O)[C@H](CCC(=O)O)NC(=O)[C@H](CCC(=O)O)NC(=O)[C@H](CCC(=O)O)NC(=O)[C@H](CCC(=O)O)NC(=O)c1ccc(N(C)Cc2cnc3nc(N)nc(N)c3n2)cc1)C(=O)NCC(=O)N[C@@H](CCCNC(=N)N)C(=O)N[C@@H](CCCNC(=N)N)C(=O)N[C@@H](CCCNC(=N)N)C(=O)N[C@@H](CCCNC(=N)N)C(=O)N[C@@H](CCCNC(=N)N)C(=O)N[C@@H](CCCNC(=N)N)C(=O)N[C@@H](CCCNC(=N)N)C(=O)N[C@@H](CCCNC(=N)N)C(=O)O` ({DAMPA}-EEEEEEGFLGRRRRRRRR-OH), the concentration for half-maximal inhibition (IC50) – broadly, the concentration needed to halve the response being measured – in data set [1] is 100 µM; in data set [2], over 100 µM.
The matching figures for `CC[C@H](C)[C@H](NC(=O)[C@H](CCCCN)NC(=O)[C@@H](NC(=O)[C@H](CCC(N)=O)NC(=O)[C@H](CCCNC(=N)N)NC(=O)[C@H](CCC(=O)O)NC(=O)c1ccc(N(C)Cc2cnc3nc(N)nc(N)c3n2)cc1)[C@@H](C)CC)C(=O)N[C@@H](Cc1c[nH]c2ccccc12)C(=O)N[C@@H](Cc1ccccc1)C(=O)N[C@@H](CCC(N)=O)C(=O)N[C@@H](CC(N)=O)C(=O)N[C@@H](CCCNC(=N)N)C(=O)N[C@@H](CCCNC(=N)N)C(=O)N[C@@H](CCCCN)C(=O)N[C@@H](Cc1c[nH]c2ccccc12)C(=O)N[C@@H](CCCCN)C(=O)N[C@@H](CCCCN)C(=O)O` ({DAMPA}-ERQIKIWFQNRRKWKK-OH): 12.9 µM and 40.2 µM.
The matching figures for `CN(Cc1cnc2nc(N)nc(N)c2n1)c1ccc(C(=O)N[C@@H](CCC(=O)O)C(=O)N[C@@H](CCCNC(=N)N)C(=O)N[C@@H](CCCNC(=N)N)C(=O)N[C@@H](CCCNC(=N)N)C(=O)N[C@@H](CCCNC(=N)N)C(=O)N[C@@H](CCCNC(=N)N)C(=O)N[C@@H](CCCNC(=N)N)C(=O)N[C@@H](CCCNC(=N)N)C(=O)N[C@@H](CCCNC(=N)N)C(=O)O)cc1`: 100 µM and over 100 µM.
Consider `CC[C@H](C)[C@H](NC(=O)[C@H](CCCCN)NC(=O)[C@@H](NC(=O)[C@H](CCC(N)=O)NC(=O)[C@H](CCCNC(=N)N)NC(=O)CNC(=O)[C@H](CC(C)C)NC(=O)[C@H](Cc1ccccc1)NC(=O)CNC(=O)[C@H](CCC(=O)O)NC(=O)c1ccc(N(C)Cc2cnc3nc(N)nc(N)c3n2)cc1)[C@@H](C)CC)C(=O)N[C@@H](Cc1c[nH]c2ccccc12)C(=O)N[C@@H](Cc1ccccc1)C(=O)N[C@@H](CCC(N)=O)C(=O)N[C@@H](CC(N)=O)C(=O)N[C@@H](CCCNC(=N)N)C(=O)N[C@@H](CCCNC(=N)N)C(=O)N[C@@H](CCCCN)C(=O)N[C@@H](Cc1c[nH]c2ccccc12)C(=O)N[C@@H](CCCCN)C(=O)N[C@@H](CCCCN)C(=O)O` ({DAMPA}-EGFLGRQIKIWFQNRRKWKK-OH), for which the IC50 in data set [1] came to 5.5 µM; in data set [2], 13.9 µM. For the same compound, the Drug uptake result in data set [3] and in data set [4] was “Active” each time.
On to `CN(Cc1cnc2nc(N)nc(N)c2n1)c1ccc(C(=O)N[C@@H](CCC(=O)O)C(=O)N[C@@H](CCC(=O)O)C(=O)N[C@@H](CCC(=O)O)C(=O)N[C@@H](CCC(=O)O)C(=O)N[C@@H](CCC(=O)O)C(=O)N[C@@H](CCC(=O)O)C(=O)N[C@@H](CCCNC(=N)N)C(=O)N[C@@H](CCCNC(=N)N)C(=O)N[C@@H](CCCNC(=N)N)C(=O)N[C@@H](CCCNC(=N)N)C(=O)N[C@@H](CCCNC(=N)N)C(=O)N[C@@H](CCCNC(=N)N)C(=O)N[C@@H](CCCNC(=N)N)C(=O)N[C@@H](CCCNC(=N)N)C(=O)O)cc1` ({DAMPA}-EEEEEERRRRRRRR-OH), for which the concentration for half-maximal inhibition (IC50) in data set [1] and in data set [2] was over 100 µM each time. In addition, the Drug uptake entry in data set [3] and in data set [4] was “Active” throughout.
Consider `CC[C@H](C)[C@H](NC(=O)[C@H](CCCCN)NC(=O)[C@@H](NC(=O)[C@H](CCC(N)=O)NC(=O)[C@H](CCCNC(=N)N)NC(=O)CNC(=O)[C@H](CC(C)C)NC(=O)[C@H](Cc1ccccc1)NC(=O)CNC(=O)[C@H](CCC(=O)O)NC(=O)[C@H](CCC(=O)O)NC(=O)[C@H](CCC(=O)O)NC(=O)[C@H](CCC(=O)O)NC(=O)[C@H](CCC(=O)O)NC(=O)[C@H](CCC(=O)O)NC(=O)c1ccc(N(C)Cc2cnc3nc(N)nc(N)c3n2)cc1)[C@@H](C)CC)C(=O)N[C@@H](Cc1c[nH]c2ccccc12)C(=O)N[C@@H](Cc1ccccc1)C(=O)N[C@@H](CCC(N)=O)C(=O)N[C@@H](CC(N)=O)C(=O)N[C@@H](CCCNC(=N)N)C(=O)N[C@@H](CCCNC(=N)N)C(=O)N[C@@H](CCCCN)C(=O)N[C@@H](Cc1c[nH]c2ccccc12)C(=O)N[C@@H](CCCCN)C(=O)N[C@@H](CCCCN)C(=O)O` ({DAMPA}-EEEEEEGFLGRQIKIWFQNRRKWKK-OH), for which the IC50 in data set [1] worked out at 0.4 µM; in data set [2] it was 0.3 µM. In addition, the Drug uptake entry in data set [3] and in data set [4] was “Active” throughout.
Consider `CC[C@H](C)[C@H](NC(=O)[C@H](CCCCN)NC(=O)[C@@H](NC(=O)[C@H](CCC(N)=O)NC(=O)[C@H](CCCNC(=N)N)NC(=O)[C@H](CCC(=O)O)NC(=O)[C@H](CCC(=O)O)NC(=O)[C@H](CCC(=O)O)NC(=O)[C@H](CCC(=O)O)NC(=O)[C@H](CCC(=O)O)NC(=O)[C@H](CCC(=O)O)NC(=O)c1ccc(N(C)Cc2cnc3nc(N)nc(N)c3n2)cc1)[C@@H](C)CC)C(=O)N[C@@H](Cc1c[nH]c2ccccc12)C(=O)N[C@@H](Cc1ccccc1)C(=O)N[C@@H](CCC(N)=O)C(=O)N[C@@H](CC(N)=O)C(=O)N[C@@H](CCCNC(=N)N)C(=O)N[C@@H](CCCNC(=N)N)C(=O)N[C@@H](CCCCN)C(=O)N[C@@H](Cc1c[nH]c2ccccc12)C(=O)N[C@@H](CCCCN)C(=O)N[C@@H](CCCCN)C(=O)O` ({DAMPA}-EEEEEERQIKIWFQNRRKWKK-OH), for which the IC50 was 0.1 µM in data set [1] and over 100 µM in data set [2]. Besides, the Drug uptake entry in data set [3] and in data set [4] was “Active” throughout.
`CN(Cc1cnc2nc(N)nc(N)c2n1)c1ccc(C(=O)N[C@@H](CCC(=O)O)C(=O)O)cc1` [METHOTREXATE]: the IC50 was over 100 µM in data set [1] and 0.8 µM in data set [2].
For `CC(C)C[C@H](NC(=O)[C@H](Cc1ccccc1)NC(=O)CNC(=O)[C@H](CCC(=O)O)NC(=O)c1ccc(N(C)Cc2cnc3nc(N)nc(N)c3n2)cc1)C(=O)NCC(=O)N[C@@H](CCCNC(=N)N)C(=O)N[C@@H](CCCNC(=N)N)C(=O)N[C@@H](CCCNC(=N)N)C(=O)N[C@@H](CCCNC(=N)N)C(=O)N[C@@H](CCCNC(=N)N)C(=O)N[C@@H](CCCNC(=N)N)C(=O)N[C@@H](CCCNC(=N)N)C(=O)N[C@@H](CCCNC(=N)N)C(=O)O` ({DAMPA}-EGFLGRRRRRRRR-OH), the IC50 was 19.1 µM in data set [1] and 31.3 µM in data set [2].
As for `N=C(N)NCCC[C@H](NC(=O)[C@H](CCCNC(=N)N)NC(=O)[C@H](CCCNC(=N)N)NC(=O)[C@H](CCCNC(=N)N)NC(=O)[C@H](CCCNC(=N)N)NC(=O)[C@H](CCCNC(=N)N)NC(=O)[C@H](CCCNC(=N)N)NC(=O)[C@@H](N)CCCNC(=N)N)C(=O)O`, the figures for the half-inhibitory concentration (IC50) in data set [1] and in data set [2] were over 100 µM and 100 µM, respectively. Moreover, the Flu intensity in data set [5] is given as 975; in data set [6], under 52928; in data set [7], under 8669. In addition, the Drug uptake entry in data set [3] is “Active”.

(Values after ChEMBL document CHEMBL3785012, “Cell-penetrating conjugates of pentaglutamylated methotrexate as potential anticancer drugs against resistant tumor cells” (Eur J Med Chem, 2016).)
